Measurements as given in paper PMC9934367, “Functional impact of subunit composition and compensation on Drosophila melanogaster nicotinic receptors–targets of neonicotinoids” (PLOS Genetics, 2023).

Tested on: D. melanogaster nAChRs
Assay: Comparison of agonist activity between nAChRs expressed in X. laevis oocytes (one-way ANOVA, Kruskal-Wallis)
Assay type: cell-based
How it was run: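 Agonist pEC50 values, derived from Hill fits of normalised peak currents, were compared across receptors by one-way ANOVA or Kruskal-Wallis. Currents came from oocytes clamped at −100 mV and perfused with atropine-containing saline (0.5 μM), 3–4 days after cRNA injection of fly nAChR subunits and co-factors.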

CC(=O)OCC[N+](C)(C)C [ACh, acetylcholine]
Difference of pEC50 values, nAChRs compared (Dα1/Dα2/Dα3/Dβ1/Dβ2 vs. Dα1/Dα2/Dβ1/Dβ2/Dβ3): 0.07
Difference of pEC50 values, nAChRs compared (Dα1/Dα2/Dα3/Dβ1/Dβ2 vs. Dα1/Dα3/Dα4/Dβ1/Dβ2): -0.30
Difference of pEC50 values, nAChRs compared (Dα1/Dα2/Dα3/Dβ1/Dβ2 vs. Dα1/Dα3/Dβ1/Dβ2/Dβ3): -1.34
Difference of pEC50 values, nAChRs compared (Dα1/Dα2/Dα3/Dβ1/Dβ2 vs. Dα2/Dα3/Dα4/Dβ1/Dβ2): -1.00
Difference of pEC50 values, nAChRs compared (Dα1/Dα2/Dα3/Dβ1/Dβ2 vs. Dα2/Dα3/Dβ1/Dβ2/Dβ3): -1.52
Difference of pEC50 values (Dα1/Dα2/Dα3/Dβ1 vs. Dα1/Dα2/Dα3/Dβ1/Dβ2): 0.94
Difference of pEC50 values (Dα1/Dα2/Dα3/Dβ1 vs. Dα1/Dα2/Dβ1/Dβ2): 0.51
Difference of pEC50 values (Dα1/Dα2/Dα3/Dβ1 vs. Dα1/Dα3/Dβ1/Dβ2): -1.00
Difference of pEC50 values (Dα1/Dα2/Dα3/Dβ1 vs. Dα1/Dβ1/Dβ2): 0.68
Difference of pEC50 values (Dα1/Dα2/Dα3/Dβ1 vs. Dα3/Dβ1/Dβ2): -0.76
Difference of pEC50 values (Dα1/Dα2/Dβ1/Dβ2 vs. Dα2/Dα3/Dβ1/Dβ2): -1.07
Difference of pEC50 values (Dα1/Dα2/Dβ1 vs. Dα1/Dα2/Dα3/Dβ1): -1.29
Difference of pEC50 values (Dα1/Dα2/Dβ1 vs. Dα1/Dα2/Dα3/Dβ1/Dβ2): -0.35
Difference of pEC50 values (Dα1/Dα2/Dβ1 vs. Dα1/Dα2/Dβ1/Dβ2): -0.78
Difference of pEC50 values (Dα1/Dα2/Dβ1 vs. Dα1/Dα3/Dβ1/Dβ2): -2.29
Difference of pEC50 values (Dα1/Dα2/Dβ1 vs. Dα2/Dα3/Dβ1): -1.31
Difference of pEC50 values (Dα1/Dα2/Dβ1 vs. Dα2/Dα3/Dβ1/Dβ2): -1.85
Difference of pEC50 values (Dα1/Dα2/Dβ1 vs. Dα3/Dβ1/Dβ2): -2.05
Difference of pEC50 values (Dα1/Dα3/Dβ1/Dβ2 vs. Dα1/Dα2/Dα3/Dβ1/Dβ2): 1.94
Difference of pEC50 values (Dα1/Dα3/Dβ1/Dβ2 vs. Dα1/Dα2/Dβ1/Dβ2): 1.51
Difference of pEC50 values (Dα1/Dα3/Dβ1 vs. Dα1/Dα2/Dα3/Dβ1/Dβ2): 1.36
Difference of pEC50 values (Dα1/Dα3/Dβ1 vs. Dα1/Dα2/Dβ1): 1.71
Difference of pEC50 values (Dα1/Dα3/Dβ1 vs. Dα1/Dα2/Dβ1/Dβ2): 0.93
Difference of pEC50 values (Dα1/Dα3/Dβ1 vs. Dα1/Dβ1/Dβ2): 1.10
Difference of pEC50 values (Dα1/Dα3/Dβ1 vs. Dα2/Dα3/Dβ1): 0.40
Difference of pEC50 values (Dα1/Dα3/Dβ1 vs. Dα3/Dβ1/Dβ2): -0.34
Difference of pEC50 values (Dα1/Dβ1/Dβ2 vs. Dα1/Dα2/Dα3/Dβ1/Dβ2): 0.26
Difference of pEC50 values (Dα1/Dβ1/Dβ2 vs. Dα1/Dα3/Dβ1/Dβ2): -1.68
Difference of pEC50 values (Dα1/Dβ1/Dβ2 vs. Dα2/Dα3/Dβ1/Dβ2): -1.24
Difference of pEC50 values (Dα1/Dβ1/Dβ2 vs. Dα3/Dβ1/Dβ2): -1.44
Difference of pEC50 values (Dα1/Dβ1 vs. Dα1/Dα2/Dα3/Dβ1/Dβ2): 0.75
Difference of pEC50 values (Dα1/Dβ1 vs. Dα1/Dα2/Dβ1): 1.10
Difference of pEC50 values (Dα1/Dβ1 vs. Dα1/Dα2/Dβ1/Dβ2): 0.32
Difference of pEC50 values (Dα1/Dβ1 vs. Dα1/Dα3/Dβ1/Dβ2): -1.19
Difference of pEC50 values (Dα1/Dβ1 vs. Dα1/Dβ1/Dβ2): 0.49
Difference of pEC50 values (Dα1/Dβ1 vs. Dα2/Dα3/Dβ1): -0.21
Difference of pEC50 values (Dα1/Dβ1 vs. Dα2/Dα3/Dβ1/Dβ2): -0.75
Difference of pEC50 values (Dα1/Dβ1 vs. Dα3/Dβ1): -0.90
Difference of pEC50 values (Dα1/Dβ1 vs. Dα3/Dβ1/Dβ2): -0.95
Difference of pEC50 values (Dα2/Dα3/Dβ1/Dβ2 vs. Dα1/Dα2/Dα3/Dβ1/Dβ2): 1.50
Difference of pEC50 values (Dα2/Dα3/Dβ1 vs. Dα1/Dα2/Dα3/Dβ1): 0.02
Difference of pEC50 values (Dα2/Dα3/Dβ1 vs. Dα1/Dα2/Dα3/Dβ1/Dβ2): 0.96
Difference of pEC50 values (Dα2/Dα3/Dβ1 vs. Dα1/Dα3/Dβ1/Dβ2): -0.98
Difference of pEC50 values (Dα2/Dα3/Dβ1 vs. Dα1/Dβ1/Dβ2): 0.70
Difference of pEC50 values (Dα2/Dα3/Dβ1 vs. Dα3/Dβ1/Dβ2): -0.74
Difference of pEC50 values (Dα3/Dβ1/Dβ2 vs. Dα1/Dα2/Dα3/Dβ1/Dβ2): 1.70
Difference of pEC50 values (Dα3/Dβ1/Dβ2 vs. Dα1/Dα2/Dβ1/Dβ2): 1.27
Difference of pEC50 values (Dα3/Dβ1/Dβ2 vs. Dα1/Dα3/Dβ1/Dβ2): -0.24
Difference of pEC50 values (Dα3/Dβ1/Dβ2 vs. Dα2/Dα3/Dβ1/Dβ2): 0.20
Difference of pEC50 values (Dα3/Dβ1 vs. Dα1/Dα2/Dα3/Dβ1): 0.71
Difference of pEC50 values (Dα3/Dβ1 vs. Dα1/Dα2/Dα3/Dβ1/Dβ2): 1.65
Difference of pEC50 values (Dα3/Dβ1 vs. Dα1/Dα2/Dβ1): 2.00
Difference of pEC50 values (Dα3/Dβ1 vs. Dα1/Dα2/Dβ1/Dβ2): 1.22
Difference of pEC50 values (Dα3/Dβ1 vs. Dα1/Dα3/Dβ1): 0.29
Difference of pEC50 values (Dα3/Dβ1 vs. Dα1/Dα3/Dβ1/Dβ2): -0.29
Difference of pEC50 values (Dα3/Dβ1 vs. Dα1/Dβ1/Dβ2): 1.39
Difference of pEC50 values (Dα3/Dβ1 vs. Dα2/Dα3/Dβ1): 0.69
Difference of pEC50 values (Dα3/Dβ1 vs. Dα3/Dβ1/Dβ2): -0.05
